Measurements: PubChem BioAssay (NCI)
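Each compound was tested at five concentrations against cells in 96-well plates for 48 hours. Definition used: TGI = concentration required for complete inhibition of growth.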

Experiments:
Test in all cases: DTP human tumour cell line panel, 48 h
[1] = tested on: ACHN renal
[2] = tested on: HOP-92 NSCLC
[3] = tested on: KM12 colon
[4] = tested on: M14 melanoma
[5] = tested on: MALME-3M melanoma
[6] = tested on: MCF7 breast
[7] = tested on: MOLT-4 leukemia
[8] = tested on: NCI-H226 lung
[9] = tested on: RPMI-8226 leukemia
[10] = tested on: SF-268 CNS

Row | SMILES | TGI [1] [µM] | TGI [2] [µM] | TGI [3] [µM] | TGI [4] [µM] | TGI [5] [µM] | TGI [6] [µM] | TGI [7] [µM] | TGI [8] [µM] | TGI [9] [µM] | TGI [10] [µM]
1 | O=C(O)c1ccccc1CC(Cc1ccc2c(c1)CCC2)C(=O)O (centres undefined) | > 100 | > 100 | > 100 | > 100 | > 100 | > 100 | > 100 | > 100 | > 100 | > 100
2 | N[C@@H](Cc1ccccc1)C(=O)N1CCC[C@@H]1P(=O)(Oc1ccccc1)Oc1ccccc1 | > 100 | > 100 | > 100 | > 100 | > 100 | > 100 | > 100 | > 100 | > 100 | > 100
3 | CN1CCOC1c1ccccc1O (centres undefined) | > 100 | > 100 | > 100 | > 100 | > 100 | > 100 | > 100 | > 100 | > 100 | > 100
4 | O=[N+]([O-])C(=C(Nc1ccccc1)Nc1ccccc1)C(Cl)=C(Cl)Cl | 30.7 | 33.9 | > 55.5 | 36.1 | 41.9 | 34.4 | 1.09 | 40.4 | 65.9 | 40
5 | O=C(O)CN1CCNCCN(CC(=O)O)CCN(CC(=O)O)CCNCC1 | > 100 | > 100 | > 100 | > 100 | > 100 | > 100 | > 100 | > 100 | > 100 | 
6 | N#CC(C#N)=C1SC(=Nc2ccccc2)C(=Nc2ccccc2)N1c1ccccc1 | 71.3 | 15.6 | > 53.8 | 54.7 | 67.6 | > 58.7 | 11.8 | 44.7 | > 55.3 | > 66.7
7 | C[C@H](CCC(=O)O)[C@H]1CC[C@H]2[C@@H]3C(=O)C[C@@H]4C[C@H](O)CC[C@]4(C)[C@H]3C[C@H](O)[C@]12C | > 100 | > 100 | > 100 | > 100 | > 100 | > 100 | > 100 | > 100 | > 100 | > 100
8 | Cc1cc(/N=C/c2ccc(N(C)C)cc2)n(-c2ccccc2)n1 | > 100 | > 100 | > 100 | > 100 | > 100 | > 100 | > 100 | > 100 | > 100 | > 100
9 | CSC1=N/C(=C\c2ccc(C)cc2)C(=O)N1CN1CCCCC1 | > 100 | > 100 | > 100 | > 100 | > 100 | > 100 | > 100 | > 100 | > 100 | > 100
10 | CCOC(=O)c1cccc(N=Nc2nc[nH]c2/C=C/C(=O)OC)c1 | > 100 | > 100 | > 100 | 49.6 | 71.8 | > 100 | 40.2 | > 100 | > 100 | > 100
11 | C/C(=N\N=C1/C(=O)OC(c2ccccc2)=C1C(=O)c1ccccc1)c1ccc([N+](=O)[O-])cc1 | > 100 | 83.3 | > 100 | > 100 | > 100 | > 100 | 52.7 | 79.4 | 48.9 | > 100
12 | CCCNc1ncnc2c1ncn2C | > 100 | > 100 | > 100 | > 100 | > 100 | > 100 | > 100 | > 100 | > 100 | 
13 | O=C1c2cc(-c3ccccc3)cnc2S(=O)(=O)N1c1ccc(Br)cc1 | > 100 | 72.1 | > 100 | > 100 | 96.9 | > 100 | > 100 | > 100 | 82.2 | > 100
14 | COc1ccc(N2C(=O)CC(=O)N(NC(=O)C(C)Oc3ccccc3C)C2=S)cc1 (centres undefined) | > 100 | > 100 | > 100 | > 100 | > 100 | > 100 | > 100 | > 100 | > 100 | > 100
15 | NCCCN1c2ccccc2Sc2ccc(Cl)cc21 | > 10 | > 10 | > 6.37 | 3.21 | > 10 | 3.21 | > 10 | > 10 | > 10 | > 10
16 | CCCCCCCCCCCC[S+](C)C | 19.4 | 9.48 | 14.3 | 19.9 | 22.4 | 24.5 | 28.2 | 15.4 | 28.4 | 20.2
17 | O=C1NC2c3c(I)sc(I)c3C(O)C2O1 (centres undefined) | > 100 | > 100 | > 100 | > 100 | > 100 | > 100 | > 100 | > 100 | > 100 | > 100

Row | SMILES | TGI [1] [µM] | TGI [2] [µM] | TGI [3] [µM] | TGI [4] [µM] | TGI [5] [µM] | TGI [6] [µM] | TGI [7] [µM] | TGI [8] [µM] | TGI [9] [µM] | TGI [10] [µM]
18 | O=C(O)CCNc1ncnc2nc[nH]c12 | > 100 | > 100 | > 100 | > 100 | > 100 | > 100 |  | > 100 | > 100 | > 100
19 | BrC(=C(c1ccc(OC2CCCCO2)cc1)c1ccc(OC2CCCCO2)cc1)c1ccccc1 (centres undefined) |  | > 100 | > 100 | > 100 | > 100 | > 100 | > 100 | > 100 | > 100 | > 100
20 | Cc1c2cc[n+](C)c(C)c2cc2c1[nH]c1ccccc12 | > 100 | 50.8 | 21.1 | > 100 | 14.2 | 70.1 | 75.2 | 10.8 | 73.5 | 5.6
21 | COc1ccc(C2OC(c3ccncc3)=NN2C)cc1F (centres undefined) | > 100 | > 100 | > 100 | > 100 | > 100 | > 100 | > 100 | > 100 | > 100 | > 100
22 | CCCCCC#CCOC(=O)C(=[N+]=[N-])P(=O)(c1ccccc1)c1ccccc1 | > 10 | > 10 | > 10 | > 10 | > 10 | > 10 | > 10 | > 10 | > 10 | > 10
23 | COc1cc(OC)cc(C(=O)CC(=O)c2cc(OC)cc(OC)c2)c1 | > 100 | > 100 | > 100 | > 100 | > 100 | > 100 | > 100 | > 100 | > 100 | > 100
24 | Cc1nc(C)c(N2CCN([N+](=O)[O-])CC2)c(=O)[nH]1 | > 100 | > 100 | > 100 | > 100 | > 100 | > 100 | > 100 | > 100 | > 100 | > 100
25 | COC(=O)/C=C\C(C#N)(C#N)N=Cc1ccc(C)cc1 | 6.04 | 3.6 | 35.3 | 4.42 | 5.5 | 3.68 | 3.77 | 21.5 | 3.52 | 9.33
26 | C=C1C(=O)CC2C1CC(=O)/C(C)=C/CCC(C)(O)C2O (centres undefined) | 4.92 | 15.8 | 29.8 | > 31.2 | 3.01 | 8.38 | 6.2 | 61.6 | > 37.9 | 35.6
27 | Cc1nn(-c2ccccc2)c2c1C(c1cc3ccccc3nc1Cl)NC(=O)N2 (centres undefined) | 35.8 | 32.1 | 53.1 | 42.4 | 51.8 | 73.9 |  | 60.1 | 61.4 | > 100
28 | O=C1c2ccccc2C(=O)N1n1c(Cc2ccc([N+](=O)[O-])cc2)n[nH]c1=O | > 100 | > 100 | > 100 |  | > 100 | > 100 | > 100 | > 100 | > 100 | > 100
29 | CC(C)(C)[Si](C)(C)OCC1OC(n2ccc(=O)[nH]c2=O)C(O[Si](C)(C)C(C)(C)C)/C1=C/C#N (centres undefined) | > 60.5 | > 68.8 | > 42.2 | > 100 | > 100 | > 61.9 | > 21.1 | > 75.8 | > 100 | > 100
30 | O=S(=O)(O)C(CO)c1ccccc1 (centres undefined) (tested in a mixture with another compound) | > 100 | > 100 | > 100 | > 100 | > 100 | > 100 | > 100 | > 100 | > 100 | > 100
31 | C=C(C(=O)OCC)C(=O)OCC | > 100 | > 100 | > 100 | > 100 | > 100 | > 100 | > 100 | > 100 | > 100 | > 100
32 | O=C1OC(C2Cc3ccc4ccccc4c3C2=O)c2ccccc21 (centres undefined) | > 100 | > 100 | > 100 | > 100 | > 100 | > 100 | > 100 | 49.7 | 93.3 | > 100
33 | Oc1cc(Cl)cc2cccnc12 | > 91.6 | > 100 | > 100 | > 37.4 | 54.5 | 7.87 | 3.98 | 69.6 | 5.31 | > 39.5
